Source: ChEMBL document CHEMBL1135383, “Increase of the adenallene anti-HIV activity in cell culture using its bis(tBuSATE) phosphotriester derivative” (Bioorg Med Chem Lett, 2002)

Assays:
CEM-SS [1] = experiment: Effective concentration required to inhibit the replication of HIV-1 in CEMSS human T4 lymphoblastoid cell lines; assay type: functional, cell-based
CEM-SS [2] = experiment: Cytotoxic concentration required to inhibit the replication of HIV-1 in CEM-SS human T4 lymphoblastoid cell lines; assay type: functional
MT2 [3] = experiment: Effective concentration required to inhibit the replication of HIV-1 in MT-2 human T4 lymphoblastoid cell lines; assay type: functional, cell-based
MT2 [4] = experiment: Cytotoxic concentration required to inhibit the replication of HIV-1 in MT-2 human T4 lymphoblastoid cell lines; assay type: functional
MT4 [5] = experiment: Cytotoxic concentration required to inhibit the replication of HIV-1 in MT-4 human T4 lymphoblastoid cell lines; assay type: functional
MT4 [6] = experiment: Effective concentration required to inhibit the replication of HIV-1 in MT-4 human T4 lymphoblastoid cell lines; assay type: functional, cell-based

EC50 (CEM-SS [1])	EC50 (MT2 [3])	Structure (SMILES)	CC50 (CEM-SS [2])	CC50 (MT2 [4])	CC50 (MT4 [5])	EC50 (MT4 [6])
56 µM	> 100 µM	Nc1ncnc2c1ncn2C=C=CCO (racemic)	> 100 µM	> 100 µM	> 100 µM	> 100 µM
1.2 µM	6.4 µM	CC(C)(C)C(=O)SCCOP(=O)(OCC=C=Cn1cnc2c(N)ncnc21)OCCSC(=O)C(C)(C)C	> 10 µM	28 µM	> 10 µM	8.9 µM
